Consider two compounds from patent US11400059B2, “Treatment of pain and/or pain related symptoms associated with dysmenorrhea” (ALYRA BIOTECH PTY LTD, priority 2017, dated 2022).

Data set [1] addresses T1, Human TLR8 (Homo sapiens, UniProt Q9NR97).
T1 construct: expressed in transfected cells; host or cells: HEK293
T1 sequence (Q9NR97 27-1041): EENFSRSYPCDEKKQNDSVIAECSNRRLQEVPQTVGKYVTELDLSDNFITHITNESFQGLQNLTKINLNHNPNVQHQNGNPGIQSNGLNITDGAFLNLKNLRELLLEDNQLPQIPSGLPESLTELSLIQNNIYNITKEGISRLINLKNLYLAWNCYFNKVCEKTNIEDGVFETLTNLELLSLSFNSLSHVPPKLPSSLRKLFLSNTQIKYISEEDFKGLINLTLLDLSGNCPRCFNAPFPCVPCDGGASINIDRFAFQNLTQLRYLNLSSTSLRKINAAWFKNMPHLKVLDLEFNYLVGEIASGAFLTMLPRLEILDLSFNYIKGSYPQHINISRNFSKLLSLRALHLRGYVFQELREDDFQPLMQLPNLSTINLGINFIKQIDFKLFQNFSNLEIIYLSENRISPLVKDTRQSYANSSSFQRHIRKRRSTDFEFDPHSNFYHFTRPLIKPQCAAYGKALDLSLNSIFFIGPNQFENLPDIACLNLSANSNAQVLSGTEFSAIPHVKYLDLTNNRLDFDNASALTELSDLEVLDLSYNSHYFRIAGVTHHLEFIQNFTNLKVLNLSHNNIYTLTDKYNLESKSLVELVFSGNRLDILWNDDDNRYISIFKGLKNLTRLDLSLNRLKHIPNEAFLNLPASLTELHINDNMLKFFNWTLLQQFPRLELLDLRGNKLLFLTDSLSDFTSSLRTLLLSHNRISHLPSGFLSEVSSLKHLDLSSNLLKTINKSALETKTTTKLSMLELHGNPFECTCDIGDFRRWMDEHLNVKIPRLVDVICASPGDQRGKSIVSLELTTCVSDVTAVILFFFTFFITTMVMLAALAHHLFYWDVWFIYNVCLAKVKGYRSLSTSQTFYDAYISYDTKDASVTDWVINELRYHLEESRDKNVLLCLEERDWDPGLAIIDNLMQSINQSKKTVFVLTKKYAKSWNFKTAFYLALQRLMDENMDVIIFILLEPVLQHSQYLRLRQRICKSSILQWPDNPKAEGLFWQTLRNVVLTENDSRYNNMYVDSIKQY
Description: Human TLR antagonist screening, NF-κB SEAP reporter in HEK293 cells. In kind it is cell-based. As to conditions: antagonist mode, test article 1 μM, +CL075 200 ng/ml, No Sample 13, Control− 1. The protocol: Toll-Like Receptor (TLR), NOD-Like Receptor (NLR) and C-Type Lectin Receptor (CLR) stimulation were tested by assessing NF-κB activation in HEK293 cells expressing a given TLR, NLR or CLR. The activity of the test articles was tested at one concentration and compared to control ligands. These steps were performed in triplicate. hTLR8: […] In a 96-well plate (200 μL total volume) containing the appropriate cells (50,000-75,000 cells/well), 20 μL of the test article or the positive control ligand was added to the wells. For the antagonist assay, the test article was incubated with the cells, at 37° C. with 5% CO2, for 30 minutes prior to the addition of the positive control ligand to the wells. The media added to the wells was designed for the detection of NF-κB induced SEAP expression. After a 16-24 hr incubation the optical density (OD) was read at 650 nm on a Molecular Devices SpectraMax 340PC absorbance detector. Fold induction (ratio of average induced value to average non-induced value) was determined for each TLR, NOD1, NOD2, Dectin-1a, Dectin-1b.

Data set [2] has as its target T2, hTLR9 (Homo sapiens, UniProt Q9NR96).
T2 construct: expressed in transfected cells; host or cells: HEK293
T2 sequence (Q9NR96 26-1032): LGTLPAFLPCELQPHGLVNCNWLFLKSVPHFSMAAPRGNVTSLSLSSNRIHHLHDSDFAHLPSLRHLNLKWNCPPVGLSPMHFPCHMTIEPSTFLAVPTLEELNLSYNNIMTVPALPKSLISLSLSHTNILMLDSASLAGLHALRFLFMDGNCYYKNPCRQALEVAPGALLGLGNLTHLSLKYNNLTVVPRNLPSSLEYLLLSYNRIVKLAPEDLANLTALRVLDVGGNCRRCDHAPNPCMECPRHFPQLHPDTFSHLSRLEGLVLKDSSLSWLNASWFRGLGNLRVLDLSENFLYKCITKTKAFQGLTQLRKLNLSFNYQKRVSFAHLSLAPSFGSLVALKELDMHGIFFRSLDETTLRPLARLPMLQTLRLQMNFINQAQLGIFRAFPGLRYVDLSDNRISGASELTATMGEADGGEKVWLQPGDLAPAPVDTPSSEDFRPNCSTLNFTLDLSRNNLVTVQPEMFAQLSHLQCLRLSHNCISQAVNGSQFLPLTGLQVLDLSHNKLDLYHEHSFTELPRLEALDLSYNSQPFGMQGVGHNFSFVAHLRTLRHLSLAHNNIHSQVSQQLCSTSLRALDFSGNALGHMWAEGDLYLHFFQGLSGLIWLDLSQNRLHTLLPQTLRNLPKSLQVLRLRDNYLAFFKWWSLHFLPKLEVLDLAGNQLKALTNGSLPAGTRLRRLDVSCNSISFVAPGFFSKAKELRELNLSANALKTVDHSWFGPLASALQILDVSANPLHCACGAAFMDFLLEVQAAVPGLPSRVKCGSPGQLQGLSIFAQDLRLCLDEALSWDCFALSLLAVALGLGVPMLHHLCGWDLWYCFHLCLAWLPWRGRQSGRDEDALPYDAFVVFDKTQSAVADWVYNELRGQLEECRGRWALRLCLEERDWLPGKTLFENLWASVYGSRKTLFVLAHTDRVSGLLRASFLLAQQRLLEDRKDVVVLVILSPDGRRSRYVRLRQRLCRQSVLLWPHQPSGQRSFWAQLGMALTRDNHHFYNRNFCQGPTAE
Described as above. In kind it is cell-based. The settings on record: antagonist mode, test article 1 μM, +ODN 2006 500 ng/ml; No Sample 7, Control− 1. The protocol: Toll-Like Receptor (TLR), NOD-Like Receptor (NLR) and C-Type Lectin Receptor (CLR) stimulation were tested by assessing NF-κB activation in HEK293 cells expressing a given TLR, NLR or CLR. The activity of the test articles was tested at one concentration and compared to control ligands. These steps were performed in triplicate. hTLR9: CpG ODN 2006 at 1 μg/mL Antagonist: 500 ng/mL. In a 96-well plate (200 μL total volume) containing the appropriate cells (50,000-75,000 cells/well), 20 μL of the test article or the positive control ligand was added to the wells. For the antagonist assay, the test article was incubated with the cells, at 37° C. with 5% CO2, for 30 minutes prior to the addition of the positive control ligand to the wells. The media added to the wells was designed for the detection of NF-κB induced SEAP expression. After a 16-24 hr incubation the optical density (OD) was read at 650 nm on a Molecular Devices SpectraMax 340PC absorbance detector. Fold induction (ratio of average induced value to average non-induced value) was determined for each TLR, NOD1, NOD2, Dectin-1a, Dectin-1b.

Structures are written as SMILES.

Take `CN(C)CCC=C1c2ccccc2CCc2ccccc21` [Amitriptyline]: the “Fold Induction” value in data set [1] was “slight inhibitory effect”; in data set [1] (listed as Ami) it was 11; in data set [2], “slight inhibitory effect”.
With `CNCCC=C1c2ccccc2CCc2ccccc21` [Nortriptyline], the “Fold Induction” value in data set [1] was “slight inhibitory effect”; in data set [1] (listed as Nor) it was 11; in data set [2], “slight inhibitory effect”.
